Our source for the LD99 values is ChEMBL document CHEMBL1151191, “Rugulotrosins A and B: Two new antibacterial metabolites from an Australian isolate of a Penicillium sp” (J Nat Prod, 2004).

In one series the test system is Bacillus cereus. Kind of series: Antibacterial activity against Bacillus cereus ATCC 11778 after 24 hrs by agar-based microtiter plate assay. In kind it is organism-based.
The next series has as its system Enterococcus faecalis. The series is described as follows: Antibacterial activity against Enterococcus faecalis ATCC 29212 after 24 hrs by agar-based microtiter plate assay. The format is functional.
A further series has as its system Staphylococcus aureus. The series is described as follows: Antibacterial activity against Staphylococcus aureus ATCC 25923 after 24 hrs by agar-based microtiter plate assay. The format is organism-based.
The next series concerns Bacillus subtilis. The series is described as follows: Antibacterial activity against Bacillus subtilis ATCC 6633 after 24 hrs by agar-based microtiter plate assay. In kind it is functional.

With `COC(=O)[C@]12Oc3cc(C)c(-c4c(C)cc5c(c4O)C(=O)C4=C(O)CC[C@H](O)[C@@]4(C(=O)OC)O5)c(O)c3C(=O)C1=C(O)CC[C@@H]2O` [RUGULOTROSIN A], the LD99 in the series with Bacillus cereus is 3.1 µg/mL; in the series with Enterococcus faecalis it was 1.6 µg/mL; in the series with Staphylococcus aureus it was 200 µg/mL. `COC(=O)[C@]12Oc3c(Br)c(C)c(-c4c(C)c(Br)c(O)c5c4O[C@@]4(C(=O)OC)C(=C(O)CC[C@@H]4O)C5=O)c(O)c3C(=O)C1=C(O)CC[C@@H]2O` registered an LD99 with Bacillus subtilis of 6.3 µg/mL. As for `COC(=O)[C@]12Oc3cc(C)c(-c4c(C)cc(O)c5c4O[C@@]4(C(=O)OC)C(=C(O)CC[C@@H]4O)C5=O)c(O)c3C(=O)C1=C(O)CC[C@@H]2O` [RUGULOTROSIN B], in the series on Bacillus subtilis, the LD99 was 25 µg/mL.
